Laboratory results: ChEMBL document CHEMBL5506049, “Discovery of Novel Small-Molecule-Based Potential PD-L1/EGFR Dual Inhibitors with High Druggability for Glioblastoma Immunotherapy” (J Med Chem, 2024)
The source made the active and inactive calls. The rule behind the calls is not given here.

Assays:
[1] = In vivo antitumor activity against […] GL261 cells xenografted in C57BL/6 mouse assessed as tumor growth inhibition (tumor volume decrease) at 100 mg/kg, IG treated for 21 days relative to control; assay type: functional; conditions: GL261, po, 504 h, time 21 day, read-out: TGI
[2] = Cmax in Sprague-Dawley rat at 20 mg/kg, po measured upto 72 hrs by (LC-MS)/MS analysis; assay type: ADME, organism-based; conditions: in vivo
[3] = AUC (0 to t) in Sprague-Dawley rat at 20 mg/kg, po measured upto 72 hrs by (LC-MS)/MS analysis; assay type: ADME, organism-based; conditions: in vivo
[4] = Toxicity in C57BL/6 mouse xenografted with […] GL261 cells assessed as cell necrosis in liver at 100 mg/kg, IG treated for 21 days by hematoxylin-eosin staining based microscopy assay; assay type: organism-based; conditions: in vivo, po, 504 h, time 21 day
[5] = tested on: U-87MG ATCC; assay: Effect on total ERK1/2 level in human U-87 MG cells at 0.25 to 2 uM incubated for 48 hrs by Western blot analysis; assay type: functional, cell-based; conditions: dose 0.25-2 µM
[6] = Clearance in Sprague-Dawley rat at 20 mg/kg, po measured upto 72 hrs by (LC-MS)/MS analysis; assay type: ADME, organism-based; conditions: in vivo
[7] = Half life in Sprague-Dawley rat at 20 mg/kg, po measured upto 72 hrs by (LC-MS)/MS analysis; assay type: ADME, organism-based; conditions: in vivo
[8] = Volume of distribution in Sprague-Dawley rat at 20 mg/kg, po measured upto 72 hrs by (LC-MS)/MS analysis; assay type: ADME, organism-based; conditions: in vivo
[9] = tested on: U-251; assay: cells; conditions: Homo sapiens, U-251, 72 h
Description: Antiproliferative activity against human U-251 cells incubated for 72 hrs by MTT assay

[10] = tested on: Glioblastoma cell line; assay: Antitumor immunity against glioblastoma bearing C57BL/6 mouse model assessed as tumor infiltrating lymphocytes by measuring increase in CD3+CD4+T cells at 100 mg/kg, IG (reference value: 0.91%); assay type: functional
[11] = Volume of distribution in Sprague-Dawley rat at 4 mg/kg, iv measured upto 72 hrs by (LC-MS)/MS analysis; assay type: ADME, organism-based; conditions: in vivo
[12] = tested on: U-87 MG; assay: Induction of cell cycle arrest in human U-87 MG cells assessed as accumulation of cells at G0/G1 phase at 0.5 uM incubated for 48 hrs by flow cytometry (reference value: 60.51%); assay type: functional, U-87MG ATCC
[13] = Toxicity in C57BL/6 mouse xenografted with […] GL261 cells assessed as adverse effect at 50 to 100 mg/kg, IG treated for 21 days; assay type: organism-based; conditions: in vivo, po, 504 h, dose 50-100 mg/kg, time 21 day
[14] = AUC (0 to infinity) in Sprague-Dawley rat at 4 mg/kg, iv measured upto 72 hrs by (LC-MS)/MS analysis; assay type: ADME, organism-based; conditions: in vivo
[15] = tested on: U-87 MG; assay: Induction of cell cycle arrest in human U-87 MG cells assessed as decrease in accumulation of cells at S phase at 2 uM incubated for 48 hrs by flow cytometry (reference value: 30.36%); assay type: functional, U-87MG ATCC; set-up: scale not given: the % may be the effect or the level left
[16] = cells; conditions: GL261, 72 h
Description: Antiproliferative activity against human GL261 cells incubated for 72 hrs by MTT assay

[17] = Toxicity in C57BL/6 mouse xenografted with […] GL261 cells assessed as cell necrosis in kidney at 100 mg/kg, IG treated for 21 days by hematoxylin-eosin staining based microscopy assay; assay type: organism-based; conditions: in vivo, po, 504 h, time 21 day

Q: What does the source list for `COc1cc2ncnc(Nc3cccc(Cl)c3F)c2cc1OCCCCNCc1c(OC)cc(OCc2cccc(-c3ccccc3)c2C)cc1OC`?
A: inhibition in vivo at 100 mg/kg [1]: 89.4%; Cmax [2]: 255 ng/mL; AUC(0-t) at 72 h [3]: 3150 ng·h/mL; Activity [4]: Non-Toxic; Activity [5]: inactive; CL/F [6]: 107 mL/min/kg; half-life [7]: 13 h; Vd [8]: 123.5 L/kg; IC50 [9]: 1020 nM; Activity [10]: 3.74%; Vd [11]: 13.7 L/kg; Activity [12]: 63.57%; Activity [13]: Non-Toxic; AUC(0-inf) [14]: 2910 ng·h/mL; Activity [15]: 16.72%; IC50 [16]: 1190 nM; Activity [17]: Non-Toxic
